Like-named read-outs stand apart in the source and are kept apart here. Ends that are not written are not given here.
Key:
HEK293T cells = experiment: Cytotoxicity, Alamar Blue assay; type: cell-based
Procedure: Cytotoxicity was evaluated using the Alamar Blue assay on HEK293T cells. HEK293T cells were cultured in DMEM supplemented with 10% FBS and incubated at 37 °C with 5% CO2. Amphotericin B and staurosporine were used as controls. Peptide solutions were diluted in PBS (pH 7.4) with final concentrations ranging from 1 to 128 µg·mL^−1. The cells were treated with peptides for 72 h. After that, 10 µL Alamar Blue was added into each well. The plate was incubated for 4 hours under dark condition and detected the absorbance at 570 nm. The inhibition rate of cell growth was calculated via (OD570, peptide ‐ OD570, PBS) / (OD570, staurosporine ‐ OD570, PBS). The half maximal cytotoxic concentration (CC50) was fitted with GraphPad Prism. Each test was conducted in triplicate.

[1] = synthesis report, ref ChinaPeptides Co., Ltd. quality reports, Figure S7, cited from earlier work
[2] = tested on: Bacillus subtilis ATCC 6633; type: cell-based; details: ATCC 6633, 20 h
Procedure: (§1) The minimal inhibitory concentration (MIC) of all screened peptides were determined by the microbroth dilution method. Bacterial strains included four Gram‐negative strains (Acinetobacter baumanii ATCC 17978, Acinetobacter baumanii ATCC 19606, Escherichia coli ATCC 25922, Escherichia coli DH5 α ) and seven Gram‐positive strains (Staphylococcus aureus ATCC 25923, Staphylococcus aureus ATCC 6538, Bacillus subtilis ATCC 6633, Enterococcus faecalis ATCC 29212, Micrococcus luteus CMCC(B) 28001, Staphylococcus capitis ATCC 27842, Staphylococcus hominis ATCC 27844). Bacteria were incubated overnight at 37 °C and diluted to 5 × 10^5 cfu·mL^−1. Then 99 µL bacterial suspension was added into each well of a 96‐well plate. Peptides were dissolved in cation adjusted Mueller‐Hinton (CAMHB) medium at an initial concentration of 1 mg·mL^−1 and then diluted in twofold gradient concentrations, ranging from 0.125 to 128 µg·mL^−1 with 1 µL in each well. The plate was placed in incubator for 20 h at 37 °C. The lowest concentration of peptide causing no observed bacteria grow was its MIC.

[3] = tested on: Micrococcus luteus CMCC(B) 28001; type: cell-based; details: CMCC(B) 28001, 20 h
Procedure: as §1

[4] = tested on: Staphylococcus hominis ATCC 27844; type: cell-based; details: ATCC 27844, 20 h
Procedure: as §1

[5] = tested on: Staphylococcus capitis ATCC 27842; type: cell-based; details: ATCC 27842, 20 h
Procedure: as §1

[6] = tested on: Staphylococcus aureus ATCC 25923; type: cell-based; details: ATCC 25923, 20 h
Procedure: as §1

[7] = tested on: Escherichia coli ATCC 25922; type: cell-based; details: ATCC 25922, 20 h
Procedure: as §1

[8] = tested on: Acinetobacter baumanii ATCC 17978; type: cell-based; details: ATCC 17978, 20 h
Procedure: as §1

Escherichia coli DH5α = type: cell-based; details: 20 h
Procedure: as §1

[9] = tested on: Enterococcus faecalis ATCC 29212; type: cell-based; details: ATCC 29212, 20 h
Procedure: as §1

[10] = tested on: Staphylococcus aureus ATCC 6538; type: cell-based; details: ATCC 6538, 20 h
Procedure: as §1

[11] = tested on: Acinetobacter baumanii ATCC 19606; type: cell-based; details: ATCC 19606, 20 h
Procedure: as §1

Compound | Cytotoxicity CC50 HEK293T (HEK293T cells) [µg/mL] | Cytotoxicity CC50 HEK293T (HEK293T cells; HEK293T, Alamar Blue, 72 h treatment, 1 to 128 µg/mL, absorbance 570 nm, triplicate) [µg/mL] | Solubility ([1]; in 25%ACN/75%H2O) [µg/mL] | MIC B. subtilis ATCC 6633 [2] [µg/mL] | MIC M. luteus CMCC(B) 28001 [3] [µg/mL] | MIC S. hominis ATCC 27844 [4] [µg/mL] | MIC S. capitis ATCC 27842 [5] [µg/mL] | Solubility ([1]; in 15%ACN/85%H2O) [µg/mL] | MIC S. aureus ATCC 25923 [6] [µg/mL] | MIC E. coli ATCC 25922 [7] [µg/mL] | MIC A. baumannii ATCC 17978 [8] [µg/mL] | MIC E. coli DH5α (Escherichia coli DH5α) [µg/mL] | MIC E. faecalis ATCC 29212 [9] [µg/mL] | MIC S. aureus ATCC 6538 [10] [µg/mL] | MIC A. baumannii ATCC 19606 [11] [µg/mL]
C[C@@H]1[C@H](O)[C@@H](C)/C=C/C=C/C=C/C=C/C=C/C=C/C=C/[C@H](O[C@@H]2O[C@H](C)[C@@H](O)[C@H](N)[C@@H]2O)C[C@@H]2O[C@](O)(C[C@@H](O)C[C@@H](O)[C@H](O)CC[C@@H](O)C[C@@H](O)CC(=O)O[C@H]1C)C[C@H](O)[C@H]2C(=O)O [Amphotericin B] | 67.06 | – | – | – | – | – | – | – | – | – | – | – | – | – | –
CN[C@@H]1C[C@H]2O[C@@](C)([C@@H]1OC)n1c3ccccc3c3c4c(c5c6ccccc6n2c5c31)C(=O)NC4 [Staurospotine, Staurosporine] | – | 0.26 | – | – | – | – | – | – | – | – | – | – | – | – | –
AKLVALVNKFIGYLKQNTYC [Peptide 201] | – | – | 1000 | 32 | – | – | – | – | – | – | – | – | – | – | –
GFKSKLEQISGICRPLFAAMWK [Peptide 68] | > 128 | – | 1000 | 64 | 128 | 32 | 16 | – | – | – | – | – | – | – | –
GPIHRLINPFFNLLQGIFTN [Peptide 98] | – | – | 1000 | 32 | 128 | – | – | – | – | – | – | – | – | – | –
IYKILQLFHKRFKKGFFG [Peptide 1304] | – | – | – | 4 | 16 | 4 | 4 | 1000 | 128 | 64 | 16 | 32 | 128 | 16 | 16
KKIASIIYAHVKALRARKILDNLKRLAANRP [Peptide 615] | – | – | – | 16 | 64 | 8 | 16 | 1000 | – | 64 | 32 | 8 | – | – | 16
KLAKLLKLLLWAQNELDQKK [Peptide 623] | – | – | – | 8 | 64 | 16 | 64 | 1000 | 128 | 128 | 32 | 128 | – | 32 | 32
KVKVLIIRKLTRHIAKLKSKK [Peptide 58] | – | – | – | 8 | 8 | 2 | 4 | 1000 | – | – | – | – | 128 | – | 128

— paper PMC12904036, “Mechanism‐Driven Screening of Membrane‐Targeting and Pore‐Forming Antimicrobial Peptides” (Advanced Science, 2025)
